This assay addresses T1, NLRP3 (Homo sapiens, UniProt Q96P20).
T1 construct: Seed THP-1 cells (25,000 cells/well) containing 1.0 μg/ml LPS; host or cells: THP-1 cells, LPS-primed, nigericin-stimulated
The assay can be described thus: THP-1 cells pyroptosis assay (LPS-primed, nigericin-stimulated, resazurin readout). The note with it: 1 μg/ml LPS, 5 μM nigericin. The class given is cell-based. As for the experimental part:
THP-1 cells (ATCC #TIB-202) were grown in RPMI containing L-glutamine (Gibco #11835) supplemented with 1 mM sodium pyruvate (Sigma #S8636) and penicillin (100 units/ml)/streptomycin (0.1 mg/ml) (Sigma #P4333) in 10% Fetal Bovine Serum (FBS) (Sigma #F0804). The cells were routinely passaged and grown to confluency (˜10^6 cells/ml). On the day of the experiment, THP-1 cells were harvested and resuspended into RPMI medium (without FBS). The cells were then counted and viability (>90%) checked by Trypan blue (Sigma #T8154). Appropriate dilutions were made to give a concentration of 625,000 cells/ml. To this diluted cell solution was added LPS (Sigma #L4524) to give a 1 μg/ml Final Assay Concentration (FAC). 40 μl of the final preparation was aliquoted into each well of a 96-well plate. The plate thus prepared was used for compound screening.
The following method step-by-step assay was followed for compound screening. • 1. Seed THP-1 cells (25,000 cells/well) containing 1.0 μg/ml LPS in 40 μl of RPMI medium (without FBS) in 96-well, black walled, clear bottom cell culture plates coated with poly-D-lysine (VWR #734-0317) • 2. Add 5 μl compound (8 points half-log dilution, with 10 μM top dose) or vehicle (DMSO 0.1% FAC) to the appropriate wells • 3. Incubate for 3 hrs at 37° C. in 5% CO2 • 4. […] Plates were read in an Envision reader at Ex 560 nm and Em 590 nm • 9. […]
Background: Alamar Blue is a resazurin reagent that responds to reducing activity.

Usually IC50 stands for the point on the concentration scale where inhibition reaches its midpoint. Low readings indicate higher potency, high ones lower potency.

T1 sequence (Q96P20 whole entry): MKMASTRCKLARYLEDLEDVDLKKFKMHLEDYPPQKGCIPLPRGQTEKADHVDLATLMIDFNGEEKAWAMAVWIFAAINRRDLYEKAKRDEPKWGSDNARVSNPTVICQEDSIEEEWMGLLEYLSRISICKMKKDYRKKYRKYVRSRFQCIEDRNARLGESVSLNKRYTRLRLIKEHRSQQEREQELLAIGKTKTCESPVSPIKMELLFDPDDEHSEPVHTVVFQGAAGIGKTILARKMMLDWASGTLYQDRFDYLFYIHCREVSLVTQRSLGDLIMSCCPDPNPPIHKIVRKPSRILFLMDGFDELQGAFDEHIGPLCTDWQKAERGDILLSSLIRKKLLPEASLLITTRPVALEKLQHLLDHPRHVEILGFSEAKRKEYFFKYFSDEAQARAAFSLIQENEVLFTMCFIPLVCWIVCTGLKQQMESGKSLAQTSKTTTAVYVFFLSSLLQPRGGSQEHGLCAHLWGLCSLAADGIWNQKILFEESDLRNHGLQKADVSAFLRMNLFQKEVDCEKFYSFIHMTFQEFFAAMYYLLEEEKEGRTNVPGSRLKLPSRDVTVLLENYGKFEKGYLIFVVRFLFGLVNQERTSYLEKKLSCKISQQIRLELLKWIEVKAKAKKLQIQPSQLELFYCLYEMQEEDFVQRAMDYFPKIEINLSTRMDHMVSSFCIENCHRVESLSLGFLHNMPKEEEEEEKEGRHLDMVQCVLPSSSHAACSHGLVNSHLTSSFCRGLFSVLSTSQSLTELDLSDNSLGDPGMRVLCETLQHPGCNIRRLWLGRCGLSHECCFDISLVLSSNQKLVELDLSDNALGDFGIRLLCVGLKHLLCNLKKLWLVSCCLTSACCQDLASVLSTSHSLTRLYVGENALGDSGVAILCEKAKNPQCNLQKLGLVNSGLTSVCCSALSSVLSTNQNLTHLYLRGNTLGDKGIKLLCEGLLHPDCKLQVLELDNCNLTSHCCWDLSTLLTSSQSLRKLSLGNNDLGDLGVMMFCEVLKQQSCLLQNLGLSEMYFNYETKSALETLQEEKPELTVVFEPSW

As to `Cn1nc(S(=O)(=O)NC(=O)Nc2c3c(c(C#N)c4c2CCC4)CCC3)cc1C(C)(C)O` [Example 1, N-((8-Cyano-1,2,3,5,6,7-hexahydro-s-indacen-4-yl)carbamoyl)-5-(2-hydroxypropan-2-yl)-1-methyl-1H-pyrazole-3-sulfonamide], the IC50 lay within 160 to 640 nM.

Take `Cn1nc(S(=O)(=O)NC(=O)Nc2c3c(c(Br)c4c2CCC4)CCC3)cc1C(C)(C)O` [Example 2, N-((8-Bromo-1,2,3,5,6,7-hexahydro-s-indacen-4-yl)carbamoyl)-5-(2-hydroxypropan-2-yl)-1-methyl-1H-pyrazole-3-sulfonamide]: the IC50 is not above 160 nM.

The record behind these values is US11905252B2, “Compounds” (INFLAZOME LIMITED, priority 2018, dated 2024).
